Results as given in publication PMC10578352, “Identification of a Protein Arginine Methyltransferase 7 (PRMT7)/Protein Arginine Methyltransferase 9 (PRMT9) Inhibitor” (Journal of Medicinal Chemistry, 2023).

How the values were obtained:
PRMT1 = biological target: T1, PRMT1 (Homo sapiens, UniProt Q99873); experiment: HotSpot radioisotope-based filter assay, PRMT1; assay type: biochemical; settings: Figure 2; from IC50 values of ref 31
T1 construct: PRMT1 (residues 2–371, C-terminus); with an N-terminal GST-tag; GST (N); purchased Reaction Biology Corporation
Experimental: Then, ^3H-SAM (final concentration of 1 μM) was delivered into the reaction mixture to initiate the reaction. After incubation for 60 min at 30 °C, the reaction mixture was delivered to filter-paper for detection (as assessed by scintillation). Data were analyzed using Excel and GraphPad Prism 6.0 software (GraphPad Software Inc., San Diego, CA) for IC50 curve fits using sigmoidal dose vs response - variable slope (four parameters) equations.

human recombinant PRMT9 = biological target: T2, human recombinant PRMT9 (Homo sapiens, UniProt Q6P2P2); experiment: SPR binding to immobilized PRMT9; settings: 1:1 Langmuir model, 25 °C
T2 construct: human recombinant PRMT9 (2–845; N-terminal FLAG-tag, C-terminal His6-tag); FLAG (N); His6 (C); purchased BPS BioScience 79124
T2 sequence (Q6P2P2 2-845): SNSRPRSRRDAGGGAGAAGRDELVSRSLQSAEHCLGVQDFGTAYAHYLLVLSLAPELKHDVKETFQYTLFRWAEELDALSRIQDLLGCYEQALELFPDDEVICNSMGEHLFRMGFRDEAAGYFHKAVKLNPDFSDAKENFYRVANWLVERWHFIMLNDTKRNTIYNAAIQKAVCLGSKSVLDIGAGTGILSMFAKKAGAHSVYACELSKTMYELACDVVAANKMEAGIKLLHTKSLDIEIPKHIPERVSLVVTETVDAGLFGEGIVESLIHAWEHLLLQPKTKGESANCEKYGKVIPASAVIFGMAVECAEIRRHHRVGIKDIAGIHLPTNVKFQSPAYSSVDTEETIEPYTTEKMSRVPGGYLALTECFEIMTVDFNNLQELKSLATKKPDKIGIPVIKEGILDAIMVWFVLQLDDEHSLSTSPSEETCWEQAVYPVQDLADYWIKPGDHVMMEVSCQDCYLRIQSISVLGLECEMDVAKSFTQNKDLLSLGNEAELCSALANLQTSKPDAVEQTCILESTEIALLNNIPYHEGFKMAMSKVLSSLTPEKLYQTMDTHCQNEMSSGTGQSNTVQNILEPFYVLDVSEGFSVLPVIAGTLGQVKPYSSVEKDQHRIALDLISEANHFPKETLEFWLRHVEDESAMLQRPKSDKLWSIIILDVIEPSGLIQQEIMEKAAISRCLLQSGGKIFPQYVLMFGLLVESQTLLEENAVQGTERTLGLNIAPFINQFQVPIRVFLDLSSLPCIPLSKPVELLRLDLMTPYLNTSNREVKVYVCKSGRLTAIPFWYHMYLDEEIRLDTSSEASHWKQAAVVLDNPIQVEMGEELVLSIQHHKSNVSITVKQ
Experimental: To characterize the effect of compound 1j on PRMT9, we resolved to evaluate its direct binding to the target protein using surface plasmon resonance (SPR). To this aim, human recombinant PRMT9 (2–845; N-terminal FLAG-tag, C-terminal His6-tag) was covalently immobilized on a sensor chip surface using an amine coupling approach and compound 1j was injected over the active and reference cells at 10 different concentrations (2-fold dilution series) from 25 to 0.05 μM using the multicycle modality. Each injection was performed with an association and a dissociation time of 90 and 180 s, respectively, and with a flow rate of 30 μL/min. To reduce false positives from detergent-sensitive, nonspecific aggregation-based binding, detergents (0.05% Tween20) were added to the running buffer in all experiments. The corrected sensorgrams were fitted simultaneously by kinetic analysis using the 1:1 Langmuir model of the BIAevaluation software to obtain equilibrium dissociation constants (KD) and kinetic dissociation (koff) and association (kon) constants, and the curve-fitting efficiency was evaluated by chi-square (χ^2). The χ^2 value of 1j was calculated to be 0.650, indicating a good fit.
SPR experiments were performed on a Biacore T200 biosensor (Cytiva). […] The curve-fitting efficiency was evaluated by the chi-square (χ^2). […]

T1 sequence (Q99873 2-371): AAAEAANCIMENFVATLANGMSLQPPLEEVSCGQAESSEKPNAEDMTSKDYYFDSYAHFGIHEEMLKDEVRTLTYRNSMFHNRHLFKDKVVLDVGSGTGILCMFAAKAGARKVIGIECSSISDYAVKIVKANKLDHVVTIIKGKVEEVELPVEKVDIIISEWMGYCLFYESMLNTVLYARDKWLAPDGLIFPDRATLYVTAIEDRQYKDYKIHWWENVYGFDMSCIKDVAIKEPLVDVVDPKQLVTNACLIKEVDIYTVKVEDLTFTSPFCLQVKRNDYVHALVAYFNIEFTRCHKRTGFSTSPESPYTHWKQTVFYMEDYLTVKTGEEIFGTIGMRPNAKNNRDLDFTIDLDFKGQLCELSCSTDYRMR

| SMILES | selectivity index for PRMT7 over PRMT1 (PRMT1) [fold] | PRMT9 SPR residence time (τR = 1/koff) (human recombinant PRMT9) [s] | Kd (human recombinant PRMT9; KD = koff/kon) [nM] |
| --- | --- | --- | --- |
| COC(=O)c1cc(O)c2cc(NC(=O)NCCCCCNC(=N)NC[C@H]3O[C@@H](n4cnc5c(N)ncnc54)[C@H](O)[C@@H]3O)ccc2c1 [1c] | 38 | – | – |
| COC(=O)c1cc(O)c2cc(NC(=O)NCCCNC(=N)NC[C@H]3O[C@@H](n4cnc5c(N)ncnc54)[C@H](O)[C@@H]3O)cc(C(F)(F)F)c2c1 [1j, Methyl 6-(3-(3-(3-(((2R,3S,4R,5R)-5-(6-Amino-9H-purin-9-yl)-3,4-dihydroxytetrahydrofuran-2-yl)methyl)guanidino)propyl)ureido)-4-hydroxy-8-(trifluoromethyl)-2-naphthoate] | – | 500 | 188 |
